Reference: PubChem BioAssay (NCI)
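Test compounds were applied to cells in 96-well plates for 48 hours at 5 doses. The concentration for 50% growth inhibition is given as GI50. TGI is the concentration that stops growth completely.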

Experiments:
Assay in all cases: inhibition of tumour cell growth, NCI panel, 48 h
OVCAR-5 ovarian = test system: OVCAR-5 ovarian
SNB-75 CNS = test system: SNB-75 CNS
OVCAR-4 ovarian = test system: OVCAR-4 ovarian
HOP-92 NSCLC = test system: HOP-92 NSCLC
HL-60(TB) leukemia = test system: HL-60(TB) leukemia
SK-MEL-5 melanoma = test system: SK-MEL-5 melanoma
A498 renal = test system: A498 renal
TK-10 renal = test system: TK-10 renal
HT29 colon = test system: HT29 colon
MOLT-4 leukemia = test system: MOLT-4 leukemia
NCI/ADR-RES ovarian = test system: NCI/ADR-RES ovarian
SF-268 CNS = test system: SF-268 CNS
MDA-MB-435 = test system: MDA-MB-435
U251 CNS = test system: U251 CNS
SNB-19 CNS = test system: SNB-19 CNS
LOX IMVI melanoma = test system: LOX IMVI melanoma
HOP-62 NSCLC = test system: HOP-62 NSCLC
CCRF-CEM leukemia = test system: CCRF-CEM leukemia
NCI-H522 lung = test system: NCI-H522 lung
UO-31 renal = test system: UO-31 renal
SF-295 CNS = test system: SF-295 CNS
SK-MEL-28 melanoma = test system: SK-MEL-28 melanoma
K-562 leukemia = test system: K-562 leukemia
HCC-2998 colon = test system: HCC-2998 colon
786-0 renal = test system: 786-0 renal
RPMI-8226 leukemia = test system: RPMI-8226 leukemia
KM12 colon = test system: KM12 colon
HS 578T breast = test system: HS 578T breast
HCT-15 colon = test system: HCT-15 colon

**Q.** Which results are given for `C=CCOC1=CC(=O)c2ccccc2C1=O`?
**A.** GI50 (OVCAR-5 ovarian): 2.38 µM; TGI (OVCAR-5 ovarian): 5.46 µM; GI50 (SNB-75 CNS): 2.11 µM; TGI (SNB-75 CNS): 4.08 µM; GI50 (OVCAR-4 ovarian): 1.57 µM; TGI (OVCAR-4 ovarian): 2.95 µM; GI50 (HOP-92 NSCLC): 4.42 µM; TGI (HOP-92 NSCLC): 15.4 µM; GI50 (HL-60(TB) leukemia): 2.75 µM; TGI (HL-60(TB) leukemia): 6.61 µM; GI50 (SK-MEL-5 melanoma): 1.63 µM; TGI (SK-MEL-5 melanoma): 3.01 µM; GI50 (A498 renal): 1.42 µM; TGI (A498 renal): 19.8 µM; GI50 (TK-10 renal): 15.4 µM; TGI (TK-10 renal): 28.9 µM; GI50 (HT29 colon): 2.39 µM; TGI (HT29 colon): 5.53 µM; GI50 (MOLT-4 leukemia): 5.36 µM; TGI (MOLT-4 leukemia): 40.4 µM; GI50 (NCI/ADR-RES ovarian): 2.68 µM; TGI (NCI/ADR-RES ovarian): 7 µM; GI50 (SF-268 CNS): 4.21 µM; TGI (SF-268 CNS): 14.5 µM; GI50 (MDA-MB-435): 1.94 µM; TGI (MDA-MB-435): 3.64 µM; GI50 (U251 CNS): 2.71 µM; TGI (U251 CNS): 6.65 µM; GI50 (SNB-19 CNS): 12.9 µM; TGI (SNB-19 CNS): 29.2 µM; GI50 (LOX IMVI melanoma): 1.71 µM; TGI (LOX IMVI melanoma): 3.65 µM; GI50 (HOP-62 NSCLC): 1.82 µM; TGI (HOP-62 NSCLC): 3.43 µM; GI50 (CCRF-CEM leukemia): 4.37 µM; TGI (CCRF-CEM leukemia): 41.1 µM; GI50 (NCI-H522 lung): 2.05 µM; TGI (NCI-H522 lung): 3.9 µM; GI50 (UO-31 renal): 2.25 µM; TGI (UO-31 renal): 7.4 µM; GI50 (SF-295 CNS): 2.12 µM; TGI (SF-295 CNS): 4.75 µM; GI50 (SK-MEL-28 melanoma): 2.38 µM; TGI (SK-MEL-28 melanoma): 4.44 µM; GI50 (K-562 leukemia): 3.62 µM; TGI (K-562 leukemia): 16.5 µM; GI50 (HCC-2998 colon): 8.59 µM; TGI (HCC-2998 colon): 21.9 µM; GI50 (786-0 renal): 4.88 µM; TGI (786-0 renal): 15.6 µM; GI50 (RPMI-8226 leukemia): 3.2 µM; GI50 (KM12 colon): 3.23 µM; TGI (KM12 colon): 9.26 µM; GI50 (HS 578T breast): 4.58 µM; TGI (HS 578T breast): 43.2 µM; GI50 (HCT-15 colon): 2.1 µM; TGI (HCT-15 colon): 4.64 µM
